From patent publication US10857230B2, “Co-therapy comprising a small molecule CSF-1R inhibitor and an agonistic antibody that specifically binds CD40 for the treatment of cancer” (Janssen Biotech, Inc., priority 2017, dated 2020)

System: CT26 murine colon carcinoma cells
Assay: Mean Tumor Volume Assay, CT26 (Example 3)
Assay type: in vivo, BALB/c mice
Settings: anti-mCD40 5 mpk, anti-CSF1R 10 mpk i.p. Days 1, 5, 9, 13
Protocol: The assay was run using female BALB/c mice (BALB/c AnNcr1, Charles River).
CT26 murine colon carcinoma cells were grown in RPMI-1640 medium containing 10% fetal bovine serum, 2 mM glutamine, 100 units/mL penicillin G sodium, 100 μg/mL streptomycin sulfate, and 25 μg/mL gentamicin. The cells were cultured in tissue culture flasks in a humidified incubator at 37° C., in an atmosphere of 5% CO2 and 95% air.
The CT26 colon cells used for implantation were harvested during log phase growth and re-suspended in cold phosphate buffered saline (PBS).
Each mouse was injected subcutaneously in the right flank with 1×10^6 tumor cells (0.1 mL cell suspension) and tumors were monitored as their volumes approached the target range of 75 to 125 mm^3. Day 1 of the study, animals with individual tumor volumes ranging from 75 to 125 mm^3 were randomized into six different groups (n=12).
The compound of formula of formula (I), rat IgG2a (Clone 2A3) (5.55 mg/mL), anti-CSF1R (purchased from BioXCell anti-mouse CSF1R (CD115), Clone: AFS98, SKU: BE0213, Lot No. 5248/0814) and anti-mCD40 (purchased from BioXCell, anti-mouse CD40, Clone: FGK45, SKU: 13E0016-2-) were used as test compounds, alone or in combination. The compound of formula (I) was stored at room temperature and antibody stock solutions were stored at 4° C. upon receipt. The compound of formula (I) was dissolved in 0.5% HPMC to yield a 1.0 mg/mL dosing solution. The dosing solution was stored at 4° C., protected from light. The rat IgG2a isotype, anti-CD40 and anti-CSF1R dosing solutions were prepared once at the beginning of study by diluting aliquots of the stock solutions with PBS. The dosing solution was stored at 4° C., protected from light.
On Day 1 of the study, groups of BALB/c mice (n=12/group) began dosing according to the following protocol
The vehicle (0.5% HPMC) and compound of formula (I) were administered orally (p.o.). The rat IgG2a isotype control, anti-mCD40 and anti-CSF1R were administered intraperitoneally (i.p.). Rat IgG2a(2A3), the anti-CSF1R and compound of formula (I) were administered at 10 mg/kg. The anti-mCD40 was administered at 5 mg/kg. The dosing volume for all animals was 10 mL/kg (0.2 mL per 20-g mouse) and was adjusted for body weight.

CC1(C)CC=C(c2nc(C3CC(C)(C)OC(C)(C)C3)ccc2NC(=O)c2nc(C#N)c[nH]2)CC1 [compound of formula (I), 4-cyano-N-(2-(4,4-dimethylcyclohex-1-en-1-yl)-6-(2,2,6,6-tetramethyltetrahydro-2H-pyran-4-yl)pyridin-3-yl)-1H-imidazole-2-carboxamide]
Group Mean Tumor Volume, Day 6 (Day 6, formula (I) 10 mpk b.i.d. × 14 days p.o.): 107.69 mm^3 | % Tumor Growth Inhibition, Day 6 (Day 6, relative to Group 1 control, formula (I) 10 mpk b.i.d. × 14 days p.o.): −0.86% | Group Mean Tumor Volume, Day 8 (Day 8, formula (I) 10 mpk b.i.d. × 14 days p.o.): 130.14 mm^3 | % Tumor Growth Inhibition, Day 8 (Day 8, relative to Group 1 control, formula (I) 10 mpk b.i.d. × 14 days p.o.): −6.79% | Group Mean Tumor Volume, Day 10 (Day 10, formula (I) 10 mpk b.i.d. × 14 days p.o.): 196.09 mm^3 | % Tumor Growth Inhibition, Day 10 (Day 10, relative to Group 1 control, formula (I) 10 mpk b.i.d. × 14 days p.o.): −24.44% | Group Mean Tumor Volume, Day 13 (Day 13, formula (I) 10 mpk b.i.d. × 14 days p.o.): 268.17 mm^3 | % Tumor Growth Inhibition, Day 13 (Day 13, relative to Group 1 control, formula (I) 10 mpk b.i.d. × 14 days p.o.): −1.27% | Group Mean Tumor Volume, Day 15 (Day 15, formula (I) 10 mpk b.i.d. × 14 days p.o.): 392.41 mm^3 | % Tumor Growth Inhibition, Day 15 (Day 15, relative to Group 1 control, formula (I) 10 mpk b.i.d. × 14 days p.o.): 5.39% | Group Mean Tumor Volume, Day 16 (Day 16, formula (I) 10 mpk b.i.d. × 14 days p.o.): 412.91 mm^3 | % Tumor Growth Inhibition, Day 16 (Day 16, relative to Group 1 control, formula (I) 10 mpk b.i.d. × 14 days p.o.): −2.37% | Group Mean Tumor Volume, Day 20 (Day 20, formula (I) 10 mpk b.i.d. × 14 days p.o.): 739.49 mm^3 | % Tumor Growth Inhibition, Day 20 (Day 20, relative to Group 1 control, formula (I) 10 mpk b.i.d. × 14 days p.o.): 16.42%
